Drawing on patent US20240150362A1, “Substituted Pyrrolotriazines” (Molecure S.A., priority 2022, published 2024), this text covers IC50 for 14 compounds.

Counter-ions that a name gives are not always drawn.

This test deals with T1, full-length USP7 (Homo sapiens, UniProt Q93009).
T1 construct: A 45 μl reaction volume containing full-length USP7 (0.5-1.0 nM)
T1 sequence (Q93009 whole entry): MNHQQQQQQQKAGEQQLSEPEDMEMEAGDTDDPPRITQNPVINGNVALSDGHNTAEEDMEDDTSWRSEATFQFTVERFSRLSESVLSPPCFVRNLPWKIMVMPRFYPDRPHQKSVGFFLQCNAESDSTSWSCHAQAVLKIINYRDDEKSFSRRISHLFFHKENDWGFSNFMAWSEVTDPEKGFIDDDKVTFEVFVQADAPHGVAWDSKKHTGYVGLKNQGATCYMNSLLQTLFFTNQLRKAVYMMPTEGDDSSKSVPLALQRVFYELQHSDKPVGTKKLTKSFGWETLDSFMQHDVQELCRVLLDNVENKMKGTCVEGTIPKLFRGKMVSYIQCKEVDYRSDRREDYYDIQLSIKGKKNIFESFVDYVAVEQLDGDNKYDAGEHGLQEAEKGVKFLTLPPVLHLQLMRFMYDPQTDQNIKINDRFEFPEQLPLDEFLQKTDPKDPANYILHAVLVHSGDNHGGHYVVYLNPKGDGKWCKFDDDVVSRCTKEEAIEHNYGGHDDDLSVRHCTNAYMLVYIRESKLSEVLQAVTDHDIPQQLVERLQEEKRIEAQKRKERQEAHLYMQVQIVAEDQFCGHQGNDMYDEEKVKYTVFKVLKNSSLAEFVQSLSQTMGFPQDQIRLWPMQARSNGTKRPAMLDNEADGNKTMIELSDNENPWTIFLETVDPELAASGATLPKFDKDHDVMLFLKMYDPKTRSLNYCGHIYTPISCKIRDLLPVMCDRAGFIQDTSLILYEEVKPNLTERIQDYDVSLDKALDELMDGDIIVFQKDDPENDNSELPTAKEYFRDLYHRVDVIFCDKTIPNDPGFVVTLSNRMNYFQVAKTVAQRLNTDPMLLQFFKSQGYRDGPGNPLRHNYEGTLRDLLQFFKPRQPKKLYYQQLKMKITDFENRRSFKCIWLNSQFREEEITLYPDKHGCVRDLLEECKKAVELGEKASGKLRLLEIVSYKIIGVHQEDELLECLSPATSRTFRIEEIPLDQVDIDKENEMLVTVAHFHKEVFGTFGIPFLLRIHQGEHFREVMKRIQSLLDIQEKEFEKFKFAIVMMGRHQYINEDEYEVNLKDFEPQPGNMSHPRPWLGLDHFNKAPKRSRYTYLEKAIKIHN
Kind of test: Enzymatic assay to determine IC50 of USP7 inhibitors (Ubiquitin-Rhodamine 110 cleavage). It is filed as biochemical. The conditions noted are these: full-length USP7 0.5-1.0 nM, 0.5 μM Ubiquitin-Rhodamine 110, 30-60 min at 25° C. The method, then:
Enzymatic Assay to Determine IC50 of USP7 Inhibitors
The IC50 is the concentration of an inhibitor where the measured enzyme activity is reduced by half. In the case of USP7 deubiquitinase, the IC50 of an USP7 inhibitor is the molar concentration of the compound that inhibits 50% of the activity observed in a USP7-mediated-ubiquitin-rhodamine cleavage assay. For the inhibitors disclosed herein, their potency was measured using the following method.
A 45 μl reaction volume containing full-length USP7 (0.5-1.0 nM) in 50 mM HEPES pH 7.5, 150 mM NaCl, 2 mM DTT, 1 mg/ml BSA and 0.05% Tween20 was assembled in wells of 96 well half area black flat bottom plates. Test compounds were first dissolved to 30 mM stocks in DMSO and subsequently introduced to enzyme 15 min after USP7 incubation with DTT at room temperature. The enzymatic reaction was started by adding 0.5 μM Ubiquitin-Rhodamine 110 (final concentration) and allowed to proceed for 30-60 min at 25° C., 250 RPM shaking before Rhodamine fluorescence (485 nm excitation/535 nm emission) was measured using Tecan Spark M10 plate reader. The IC50 values were determined by data fitting to variable slope model four-parameter dose-response curve using GraphPad 7.05.
Consider `CC1(C)C2C(=O)N(Cc3cc4c(-c5cc(Cl)cc6c5N(C5CCNC5)CCO6)ncnn4c3)C(=O)C21` (centres unmarked) [Example 55, 3-((4-(7-chloro-4-(pyrrolidin-3-yl)-3,4-dihydro-2H-benzo[b][1,4]oxazin-5-yl)pyrrolo[2,1-f][1,2,4]triazin-6-yl)methyl)-6,6-dimethyl-3-azabicyclo[3.1.0]hexane-2,4-dione hydrochloride], for which the IC50 was less than 500 nM.

Take `CCn1ccc(=O)n(Cc2cc3c(-c4cc(Cl)cc(C)c4CC4CNC[C@H](C)O4)ncnn3c2)c1=O` (single isomer, unassigned) [Example 114, hydrochloride]: the IC50 was less than 500 nM.

For the compound `O=C1CNC(=O)N1Cc1cc2c(-c3cc(Cl)cc4ccn(C[C@@H]5CNCCO5)c34)ncnn2c1` [Example 37, (S)-3-((4-(5-chloro-1-(morpholin-2-ylmethyl)-1H-indol-7-yl)pyrrolo[2,1-f][1,2,4]triazin-6-yl)methyl)imidazolidine-2,4-dione hydrochloride], the IC50 is less than 500 nM.

Turning to `CC1(C)C2C(=O)N(Cc3cc4c(-c5cc(Cl)cc6c(F)nn(C[C@@H]7CNCCO7)c56)ncnn4c3)C(=O)C21` (stereo partly drawn) [Example 45, 3-((4-(5-chloro-3-fluoro-1-(((S)-morpholin-2-yl)methyl)-1H-indazol-7-yl)pyrrolo[2,1-f][1,2,4]triazin-6-yl)methyl)-6,6-dimethyl-3-azabicyclo[3.1.0]hexane-2,4-dione hydrochloride], the IC50 was less than 500 nM.

`Cc1cc(Cl)cc(-c2ncnn3cc(CN4C(=O)CN(C)CC4=O)cc23)c1CC1CNC[C@H](C)O1` (single isomer, unassigned) [Example 117, hydrochloride]: the half-inhibitory concentration (IC50) is less than 500 nM.

`[2H]C([2H])([2H])n1ccc(=O)n(Cc2cc3c(-c4cc(Cl)cc(C)c4C[C@@H]4CNCCO4)ncnn3c2)c1=O` (single isomer, unassigned) [Example 105, hydrochloride] gave an IC50 of less than 500 nM.

Compound `Cc1cc(Cl)cc(-c2ncnn3cc(Cn4c(=O)ccn(C(C)C)c4=O)cc23)c1CC1CN[C@@H](C)CO1` (single isomer, unassigned) [Example 113, hydrochloride] showed a concentration for half-maximal inhibition (IC50) of less than 500 nM.

`CC1(C)C2C(=O)N(Cc3cc4c(-c5cc(C(F)(F)F)cc6ccn(C[C@@H]7CNCCO7)c56)ncnn4c3)C(=O)C21` (stereo partly drawn) [Example 35, 6,6-dimethyl-3-((4-(1-(((S)-morpholin-2-yl)methyl)-5-(trifluoromethyl)-1H-indol-7-yl)pyrrolo[2,1-f][1,2,4]triazin-6-yl)methyl)-3-azabicyclo[3.1.0]hexane-2,4-dione 2,2,2-trifluoroacetate]: the IC50 was less than 500 nM.

For the compound `O=c1cc[nH]c(=O)n1Cc1cc2c(-c3cc(Cl)cc4ccn(CC5(F)CCNCC5)c34)ncnn2c1` [Example 130, 3-((4-(5-chloro-1-((4-fluoropiperidin-4-yl)methyl)-1H-indol-7-yl)pyrrolo[2,1-f][1,2,4]triazin-6-yl)methyl)pyrimidine-2,4(1H,3H)-dione hydrochloride], the IC50 is less than 500 nM.

`Cc1cc(Cl)cc(-c2ncnn3cc(Cn4c(=O)c(F)cn(C)c4=O)cc23)c1CC1CNC[C@H](C)O1` (single isomer, unassigned) [Example 108, hydrochloride] returned an IC50 of less than 500 nM.

Compound `CCn1ccc(=O)n(Cc2cc3c(-c4cc(Cl)cc(C)c4C[C@@H]4CNCCO4)ncnn3c2)c1=O` (single isomer, unassigned) [Example 104, hydrochloride] came in with a 50% inhibitory concentration (IC50) of less than 500 nM.

As to `Cc1cc(Cl)cc(-c2ncnn3cc(Cn4c(=O)ccn(C(C)C)c4=O)cc23)c1CC1CNC[C@H](C)O1` (stereo partly drawn) [Example 111, 3-((4-(5-chloro-3-methyl-2-(((6S)-6-methylmorpholin-2-yl)methyl)phenyl)pyrrolo[2,1-f][1,2,4]triazin-6-yl)methyl)-1-isopropylpyrimidine-2,4(1H,3H)-dione hydrochloride], the half-inhibitory concentration (IC50) was less than 500 nM.

Take `Cn1ccc(=O)n(Cc2cc3c(-c4cc(Cl)cc5ccn(C[C@@H]6CNCCO6)c45)ncnn3c2)c1=O` [Example 39, (S)-3-((4-(5-chloro-1-(morpholin-2-ylmethyl)-1H-indol-7-yl)pyrrolo[2,1-f][1,2,4]triazin-6-yl)methyl)-1-methylpyrimidine-2,4(1H,3H)-dione hydrochloride]: the IC50 was less than 500 nM.

For `CC1(C)C2C(=O)N(Cc3cc4c(-c5cc(Cl)cc6ccn(CC7(F)CCCNC7)c56)ncnn4c3)C(=O)C21` (centres unmarked) [Example 29, 3-((4-(5-chloro-1-((3-fluoropiperidin-3-yl)methyl)-1H-indol-7-yl)pyrrolo[2,1-f][1,2,4]triazin-6-yl)methyl)-6,6-dimethyl-3-azabicyclo[3.1.0]hexane-2,4-dione hydrochloride], the half-maximal inhibitory concentration (IC50) is less than 500 nM.

Usually IC50 stands for the concentration that gives 50% inhibition. A lower IC50 goes with inhibition by little substance.
